Measurements taken from patent publication EP4725941A1, “ARYLAMIDE DERIVATIVE HAVING ANTITUMOR ACTIVITY” (priority 2020, dated 2021).
Where two headings read alike, the source gives them in different places.

Legend:
[1] = test system: Calu-6; assay: Cell proliferation-inhibiting activity (ATP in viable cells, CellTiter-Glo), Calu-6; assay type: cell-based, human; settings: Calu-6, 96 h, read-out: Calu-6 IC50
[2] = Human liver microsome stability; assay type: in vitro ADME; settings: human liver microsomes, pH 7.4
[3] = test system: NCI-H2122; assay: Cell proliferation-inhibiting activity (ATP in viable cells, CellTiter-Glo), NCI-H2122; assay type: cell-based, human; settings: NCI-H2122, 96 h, read-out: NCI-H2122 IC50
[4] = target: T1, BRAF (Homo sapiens, UniProt P15056); assay: BRAF-inhibiting activity, time-resolved fluorescence-fluorescence resonance energy transfer assay; assay type: biochemical
T1 construct: purchased Eurofins Genomics KK; (BRAF); Thermo Fisher Scientific Inc. (MEK1)
T1 sequence (P15056 417-766 limits assumed): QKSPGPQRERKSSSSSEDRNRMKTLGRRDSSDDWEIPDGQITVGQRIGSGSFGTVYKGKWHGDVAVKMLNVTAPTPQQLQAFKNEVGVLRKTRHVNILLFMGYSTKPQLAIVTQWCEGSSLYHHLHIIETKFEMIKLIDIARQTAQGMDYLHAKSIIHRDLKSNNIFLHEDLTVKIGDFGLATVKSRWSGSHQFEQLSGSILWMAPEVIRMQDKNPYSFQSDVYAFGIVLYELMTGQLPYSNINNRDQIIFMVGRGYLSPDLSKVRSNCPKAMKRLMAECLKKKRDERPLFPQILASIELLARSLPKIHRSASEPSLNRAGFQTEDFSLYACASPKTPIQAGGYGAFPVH
Method: The BRAF-inhibiting activity of the compounds listed in Table 3 below was evaluated by the time-resolved fluorescence-fluorescence resonance energy transfer assay as described below.

[5] = test system: A549; assay: Cell proliferation-inhibiting activity (ATP in viable cells, CellTiter-Glo), A549; assay type: cell-based, human; settings: A549, 96 h, read-out: A549 IC50
[6] = target: T2, MEK1 (Homo sapiens, UniProt Q02750); assay: MEK1-inhibiting activity, fluorescent polarization method (CRAF/MEK1/ERK2 cascade, IMAP); assay type: biochemical; settings: Table 3; read-out: MEK1 IC50
T2 construct: purchased Thermo Fisher Scientific Inc. (MEK1, CRAF); Carna Biosciences, Inc. (ERK2)
T2 sequence (Q02750 whole entry): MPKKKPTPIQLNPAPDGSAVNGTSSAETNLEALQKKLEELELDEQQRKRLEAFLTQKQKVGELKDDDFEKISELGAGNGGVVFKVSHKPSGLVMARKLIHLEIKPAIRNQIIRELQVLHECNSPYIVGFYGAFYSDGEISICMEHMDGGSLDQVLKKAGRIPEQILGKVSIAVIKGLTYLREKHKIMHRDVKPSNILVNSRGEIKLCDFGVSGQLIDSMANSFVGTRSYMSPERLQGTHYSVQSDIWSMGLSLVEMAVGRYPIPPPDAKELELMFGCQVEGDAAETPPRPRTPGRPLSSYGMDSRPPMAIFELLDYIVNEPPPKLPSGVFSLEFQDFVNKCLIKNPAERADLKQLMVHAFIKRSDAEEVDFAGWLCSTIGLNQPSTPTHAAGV
Method: The MEK1-inhibiting activity of the compounds listed in Table 3 below were evaluated by the fluorescent polarization method as described below.

[7] = human lung cancer cells, 4 days

CNS(=O)(=O)Nc1nccc(Cc2cc(C(=O)NOC(C)(C)C)c(Nc3ccc(I)cc3F)c(F)c2F)c1F [Compound A-8, 3,4-difluoro-2-(2-fluoro-4-iodoanilino)-5-[[3-fluoro-2-(methylsulfamoylamino)pyridin-4-yl]methyl]-N-[(2-methylpropan-2-yl)oxy]benz amide]
IC50 [1, 7]: 2 nM
microsomal CLint at 0.99 µM [2]: 33 µL/min/mg
IC50 [3, 7]: 0.1 nM
IC50 ([4]; read-out: BRAF IC50; Table 3): 4 nM
IC50 [5, 7]: 0.4 nM
IC50 [6]: 3 nM

COCCNS(=O)(=O)Nc1nccc(Cc2cc(C(=O)NOC(C)(C)C)c(Nc3ccc(I)cc3F)c(F)c2F)c1F [Compound A-9, 3,4-Difluoro-2-(2-fluoro-4-iodoanilino)-5-[[3-fluoro-2-(2-methoxyethylsulfamoylamino)pyridin-4-yl]methyl]-N-[(2-methylpropan-2-yl)oxy]be nzamide]
IC50 [1, 7]: 7 nM
microsomal CLint at 0.99 µM [2]: 56 µL/min/mg
IC50 [3, 7]: 0.4 nM
IC50 ([4]; read-out: BRAF IC50; Table 3): 4 nM
IC50 [5, 7]: 2 nM
IC50 [6]: 4 nM

CC(C)ONC(=O)c1cc(Cc2ccnc(NS(=O)(=O)NC3(C)CCC3)c2F)c(F)c(F)c1Nc1ccc(I)cc1F [Compound A-12, 3,4-Difluoro-2-(2-fluoro-4-iodoanilino)-5-[[3-fluoro-2-[(1-methylcyclobutyl)sulfamoylamino]pyridin-4-yl]methyl]-N-propan-2-yloxybenzamide]
IC50 [1, 7]: 18 nM
microsomal CLint at 0.99 µM [2]: 121 µL/min/mg
IC50 [3, 7]: 5 nM
IC50 ([4]; read-out: BRAF IC50; Table 3): 6 nM
IC50 [5, 7]: 6 nM
IC50 [6]: 13 nM

CNS(=O)(=O)Nc1nccc(Cc2cc(C(=O)NOC)c(Nc3ccc(I)cc3F)c(F)c2F)c1F [Compound A-13, 3,4-difluoro-2-(2-fluoro-4-iodoanilino)-5-[[3-fluoro-2-(methylsulfamoylamino)pyridin-4-yl]methyl]-N-methoxybenzamide]
IC50 [1, 7]: 3 nM
microsomal CLint at 0.99 µM [2]: 31 µL/min/mg
IC50 [3, 7]: 0.3 nM
IC50 ([4]; read-out: BRAF IC50; Table 3): 3 nM
IC50 [5, 7]: 1 nM
IC50 [6]: 1 nM

COCCNS(=O)(=O)Nc1nccc(Cc2cc(C(=O)NOC)c(Nc3ccc(I)cc3F)c(F)c2F)c1F [Compound A-14, 3,4-Difluoro-2-(2-fluoro-4-iodoanilino)-5-[[3-fluoro-2-(2-methoxyethylsulfamoylamino)pyridin-4-yl]methyl]-N-methoxybenzamide]
IC50 [1, 7]: 27 nM
microsomal CLint at 0.99 µM [2]: 39 µL/min/mg
IC50 [3, 7]: 1 nM
IC50 ([4]; read-out: BRAF IC50; Table 3): 3 nM
IC50 [5, 7]: 11 nM
IC50 [6]: 2 nM

CONC(=O)c1cc(Cc2ccnc(NS(=O)(=O)NC3(C)CCC3)c2F)c(F)c(F)c1Nc1ccc(I)cc1F [Compound A-15, 3,4-difluoro-2-(2-fluoro-4-iodoanilino)-5-[[3-fluoro-2-[(1-methylcyclobutyl)sulfamoylamino]pyridin-4-yl]methyl]-N-methoxybenzamide]
IC50 [1, 7]: 5 nM
microsomal CLint at 0.99 µM [2]: 57 µL/min/mg
IC50 [3, 7]: 1 nM
IC50 ([4]; read-out: BRAF IC50; Table 3): 4 nM
IC50 [5, 7]: 2 nM
IC50 [6]: 8 nM

CNS(=O)(=O)Nc1nccc(Cc2cc(C(N)=O)c(Nc3ccc(SC)cc3F)c(F)c2F)c1F [Compound A-18, 3,4-difluoro-5-[[3-fluoro-2-(methylsulfamoylamino)pyridin-4-yl]methyl]-2-(2-fluoro-4-methylsulfanylanilino)benzamide]
IC50 ([1]; Homo sapiens): 7 nM
microsomal CLint at 0.99 µM [2]: 53 µL/min/mg
IC50 ([3]; Homo sapiens): 2 nM
IC50 ([4]; Table 3; read-out: BRAF IC50): 4 nM
IC50 ([5]; Homo sapiens): 5 nM
IC50 [6]: 8 nM

COCC(C)(C)NS(=O)(=O)Nc1nccc(Cc2cc(C(N)=O)c(Nc3ccc(I)cc3F)c(F)c2F)c1F [Compound A-24, 3,4-Difluoro-2-(2-fluoro-4-iodoanilino)-5-[[3-fluoro-2-[(1-methoxy-2-methylpropan-2-yl)sulfamoylamino]pyridin-4-yl]methyl]benzamide]
IC50 [1, 7]: 51 nM
microsomal CLint at 0.99 µM [2]: 48 µL/min/mg
IC50 [3, 7]: 4 nM
IC50 ([4]; read-out: BRAF IC50; Table 3): 3 nM
IC50 [5, 7]: 11 nM
IC50 [6]: 129 nM

CNS(=O)(=O)Nc1nccc(Cc2cc(C(N)=O)c(Nc3ccc(I)cc3F)c(F)c2F)c1F [Compound A-25, 3,4-difluoro-2-(2-fluoro-4-iodoanilino)-5-[[3-fluoro-2-(methylsulfamoylamino)pyridin-4-yl]methyl]benzamide]
IC50 [1, 7]: 2 nM
microsomal CLint at 0.99 µM [2]: 7 µL/min/mg
IC50 [3, 7]: 0.2 nM
IC50 ([4]; read-out: BRAF IC50; Table 3): 2 nM
IC50 [5, 7]: 0.5 nM
IC50 [6]: 5 nM

NC(=O)c1cc(Cc2ccnc(NS(=O)(=O)NC3CC3)c2F)c(F)c(F)c1Nc1ccc(I)cc1F [Compound A-30, 5-[[2-(cyclopropylsulfamoylamino)-3-fluoropyridin-4-yl]methyl]-3,4-difluoro-2-(2-fluoro-4-iodoanilino)benzamide]
IC50 [1, 7]: 8 nM
microsomal CLint at 0.99 µM [2]: 10 µL/min/mg
IC50 [3, 7]: 1 nM
IC50 ([4]; read-out: BRAF IC50; Table 3): 8 nM
IC50 [5, 7]: 3 nM
IC50 [6]: 9 nM

CC(C)NS(=O)(=O)Nc1nccc(Cc2cc(C(N)=O)c(Nc3ccc(I)cc3F)c(F)c2F)c1F [Compound A-31, 3,4-difluoro-2-(2-fluoro-4-iodoanilino)-5-[[3-fluoro-2-(propan-2-ylsulfamoylamino)pyridin-4-yl]methyl]benzamide]
IC50 [1, 7]: 31 nM
microsomal CLint at 0.99 µM [2]: 9 µL/min/mg
IC50 [3, 7]: 7 nM
IC50 ([4]; read-out: BRAF IC50; Table 3): 6 nM
IC50 [5, 7]: 20 nM
IC50 [6]: 49 nM

COCCNS(=O)(=O)Nc1nccc(Cc2cc(C(N)=O)c(Nc3ccc(I)cc3F)c(F)c2F)c1F [Compound A-33, 3,4-difluoro-2-(2-fluoro-4-iodoanilino)-5-[[3-fluoro-2-(2-methoxyethylsulfamoylamino)pyridin-4-yl]methyl]benzamide]
IC50 [1, 7]: 68 nM
microsomal CLint at 0.99 µM [2]: 6 µL/min/mg
IC50 [3, 7]: 8 nM
IC50 ([4]; read-out: BRAF IC50; Table 3): 2 nM
IC50 [5, 7]: 27 nM
IC50 [6]: 10 nM

CC(C)CNS(=O)(=O)Nc1nccc(Cc2cc(C(N)=O)c(Nc3ccc(I)cc3F)c(F)c2F)c1F [Compound A-34, 3,4-difluoro-2-(2-fluoro-4-iodoanilino)-5-[[3-fluoro-2-(2-methylpropylsulfamoylamino)pyridin-4-yl]methyl]benzamide]
IC50 [1, 7]: 79 nM
microsomal CLint at 0.99 µM [2]: 17 µL/min/mg
IC50 [3, 7]: 12 nM
IC50 ([4]; read-out: BRAF IC50; Table 3): 3 nM
IC50 [5, 7]: 27 nM
IC50 [6]: 81 nM

CC1(NS(=O)(=O)Nc2nccc(Cc3cc(C(N)=O)c(Nc4ccc(I)cc4F)c(F)c3F)c2F)CCC1 [Compound A-35, 3,4-difluoro-2-(2-fluoro-4-iodoanilino)-5-[[3-fluoro-2-[(1-methylcyclobutyl)sulfamoylamino]pyridin-4-yl]methyl]benzamide]
IC50 [1, 7]: 34 nM
microsomal CLint at 0.99 µM [2]: 15 µL/min/mg
IC50 [3, 7]: 4 nM
IC50 ([4]; read-out: BRAF IC50; Table 3): 28 nM
IC50 [5, 7]: 21 nM
IC50 [6]: 66 nM

NC(=O)c1cc(Cc2ccnc(NS(=O)(=O)NCC3CC3)c2F)c(F)c(F)c1Nc1ccc(I)cc1F [Compound A-36]
IC50 [1, 7]: 61 nM
microsomal CLint at 0.99 µM [2]: 18 µL/min/mg
IC50 [3, 7]: 17 nM
IC50 ([4]; read-out: BRAF IC50; Table 3): 5 nM
IC50 [5, 7]: 26 nM
IC50 [6]: 74 nM

CC(C)(C)NS(=O)(=O)Nc1nccc(Cc2cc(C(N)=O)c(Nc3ccc(I)cc3F)c(F)c2F)c1F [Compound A-37, 5-[[2-(tert-Butylsulfamoylamino)-3-fluoropyridin-4-yl]methyl]-3,4-difl uoro-2-(2-fluoro-4-iodoanilino)benzamide]
IC50 [1, 7]: 26 nM
microsomal CLint at 0.99 µM [2]: 10 µL/min/mg
IC50 [3, 7]: 7 nM
IC50 ([4]; read-out: BRAF IC50; Table 3): 7 nM
IC50 [5, 7]: 21 nM
IC50 [6]: 50 nM

CCNS(=O)(=O)Nc1nccc(Cc2cc(C(N)=O)c(Nc3ccc(I)cc3F)c(F)c2F)c1F [Compound A-40, 5-[[2-(ethylsulfamoylamino)-3-fluoropyridin-4-yl]methyl]-3,4-d ifluoro-2-(2-fluoro-4-iodoanilino)benzamide]
IC50 [1, 7]: 12 nM
microsomal CLint at 0.99 µM [2]: 2 µL/min/mg
IC50 [3, 7]: 2 nM
IC50 ([4]; read-out: BRAF IC50; Table 3): 2 nM
IC50 [5, 7]: 4 nM
IC50 [6]: 19 nM

CCCNS(=O)(=O)Nc1nccc(Cc2cc(C(N)=O)c(Nc3ccc(I)cc3F)c(F)c2F)c1F [Compound A-41, 3,4-difluoro-2-(2-fluoro-4-iodoanilino)-5-[[3-fluoro-2-(propylsulfamoylamino)pyridin-4-yl]methyl]benzamide]
IC50 [1, 7]: 8 nM
microsomal CLint at 0.99 µM [2]: 5 µL/min/mg
IC50 [3, 7]: 2 nM
IC50 ([4]; read-out: BRAF IC50; Table 3): 7 nM
IC50 [5, 7]: 12 nM
IC50 [6]: 29 nM

NC(=O)c1cc(Cc2ccnc(NS(=O)(=O)NCCF)c2F)c(F)c(F)c1Nc1ccc(I)cc1F [Compound A-42, 3,4-difluoro-5-[[3-fluoro-2-(2-fluoroethylsulfamoylamino)pyridin-4-yl]methyl]-2-(2-fluoro-4-iodoanilino)benzamide]
IC50 [1, 7]: 68 nM
microsomal CLint at 0.99 µM [2]: 6 µL/min/mg
IC50 [3, 7]: 7 nM
IC50 ([4]; read-out: BRAF IC50; Table 3): 6 nM
IC50 [5, 7]: 9 nM
IC50 [6]: 18 nM

CNS(=O)(=O)Nc1nccc(Cc2cc(C(=O)NOCCO)c(Nc3ccc(I)cc3F)c(F)c2F)c1F [Compound B-1, 3,4-difluoro-2-(2-fluoro-4-iodoanilino)-5-[[3-fluoro-2-(methylsulfamoylamino)pyridin-4-yl]methyl]-N-(2-hydroxyethoxy)benzamide]
IC50 [1, 7]: 11 nM
microsomal CLint at 0.99 µM [2]: 15 µL/min/mg
IC50 [3, 7]: 2 nM
IC50 ([4]; read-out: BRAF IC50; Table 3): 5 nM
IC50 [5, 7]: 6 nM
IC50 [6]: 2 nM
